# Reference: US20170226514A1, “PREVENTION OF TUMOUR METASTASIS BY INHIBITION OF NECROPTOSIS” (MAX-PLANCK-GESELLSCHAFT ZUR FÖRDERUNG DER WISSENSCHAFTEN …, priority 2014, published 2017)
# B1: TRAIL: known stimulus for apoptosis, rhTRAIL from Peprotech (protein, UniProt P50591 1-281, looked up)
# Tumor necrosis factor ligand …: MAMMEVQGGPSLGQTCVLIVIFTVLLQSLCVAVTYVYFTNELKQMQDKYSKSGIACFLKEDDSYWDPNDEESMNSPCWQVKWQLRQLVRKMILRTSEETISTVQEKQQNISPLVRERGPQRVAAHITGTRGRSNTLSSPNSKNEKALGRKINSWESSRSGHSFLSNLHLRNGELVIHEKGFYYIYSQTYFRFQEEIKENTKNDKQMVQYIYKYTSYPDPILLMKSARNSCWSKDAEYGLYSIYQGGIFELKENDRIFVSVTNEHLIDMDHEASFFGAFLVG
# What was measured:
# necroptosis = settings: where Nec1i can be modified to an active form; cited from earlier work
# RIPK1 = target: T1, RIPK1 (Homo sapiens, UniProt Q13546); settings: cited from earlier work
# T1 sequence (Q13546 1-671): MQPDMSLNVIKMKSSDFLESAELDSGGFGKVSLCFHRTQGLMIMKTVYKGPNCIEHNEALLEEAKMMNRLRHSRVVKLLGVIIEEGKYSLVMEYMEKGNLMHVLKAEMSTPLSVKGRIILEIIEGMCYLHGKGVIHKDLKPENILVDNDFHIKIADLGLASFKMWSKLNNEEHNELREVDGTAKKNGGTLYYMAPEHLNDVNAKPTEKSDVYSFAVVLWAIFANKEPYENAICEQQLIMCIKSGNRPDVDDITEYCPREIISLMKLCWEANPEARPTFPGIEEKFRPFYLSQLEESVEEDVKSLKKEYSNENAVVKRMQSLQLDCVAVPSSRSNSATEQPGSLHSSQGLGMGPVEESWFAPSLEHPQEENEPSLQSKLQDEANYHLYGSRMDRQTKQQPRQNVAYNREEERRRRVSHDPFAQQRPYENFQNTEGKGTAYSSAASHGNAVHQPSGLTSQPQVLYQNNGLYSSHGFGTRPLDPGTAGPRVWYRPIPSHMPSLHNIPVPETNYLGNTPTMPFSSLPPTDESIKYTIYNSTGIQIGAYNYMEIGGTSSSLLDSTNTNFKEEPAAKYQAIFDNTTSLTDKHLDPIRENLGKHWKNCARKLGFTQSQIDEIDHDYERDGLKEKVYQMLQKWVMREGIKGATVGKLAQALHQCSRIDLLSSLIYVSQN
# HUVEC [1] = experiment: Cell death assay discriminating apoptotic from necrotic cell death in HUVEC; type: cell-based, human; settings: stimulated overnight; staining with Hoechst 33342 and EtDIII
# Method: Endothelial cells were grown to reach 80-90% confluency before addition of Ethidium homodimer […]) alone or together with substances or with tumour cells together with substances or inhibitors as indicated in the figures. After 6-18 h, cells were stained with Hoechst33342 and images were acquired. In order to identify the mode of cell death, all images were analyzed with FIJI. The total number of nuclei was determined through a low threshold over all Hoechst positive nuclei. On the same channel a second, separate threshold was used to determine the number of condensed nuclei. A third threshold on the second channel was used in order to determine the number of nuclei that were stained positive for […]. Knockdown in cells was achieved by double-transfection with siRNA using Lipofectamie […] Assays: HUVECs, HMVECs-L or L929 cells (1.5×10^4 at seeding in 100 μl) were cultured for 24 hours in 96-well plates. To induce cell death, cells were stimulated overnight with either rhTRAIL (100 ng/ml, Peprotech), Staurosporine ([…], Jena BioScience), H2O2 (1 mM, AppliChem) or […] (100 ng/ml, Peprotech) or cultured under hypoxic conditions (1% O2, Coy Laboratory Inc). […] Knockdown efficiencies were determined by Western Blotting using antibodies against RIPK3 (Abcam), Caspase-8 (ProSci) and a-tubulin (Sigma) upon lysis with Laemmli buffer or by quantitative PCR (Roche). […] Knockdown efficiencies were determined using quantitative PCR (Roche). Tumor cell number upon knockdown was determined by counting Hoechst33342-positive cells, and tumor cell death was determined by counting condensed and/or EthD-III-positive nuclei (see below). Cell migration was determined by a scratch assay Wang et al., 2007). […]
# L929 cells = experiment: Cell death assay in L929 cells (TNF-induced necroptosis, Hoechst 33342/EtDIII staining); type: cell-based, mouse; settings: L929 cells treated with TNFα; staining with Hoechst 33342 and EtDIII
# Method: Cell Death Assays: HUVECs, HMVECs-L or L929 cells (1.5×10^4 at seeding in 100 μl) were cultured for 24 hours in 96-well plates. To induce cell death, cells were stimulated overnight with either rhTRAIL (100 ng/ml, Peprotech), Staurosporine ([…], Jena BioScience), H2O2 (1 mM, AppliChem) or […] (100 ng/ml, Peprotech) or cultured under hypoxic conditions (1% O2, Coy Laboratory Inc). […] Knockdown efficiencies were determined by Western Blotting using antibodies against RIPK3 (Abcam), Caspase-8 (ProSci) and a-tubulin (Sigma) upon lysis with Laemmli buffer or by quantitative PCR (Roche). […] Knockdown efficiencies were determined using quantitative PCR (Roche). Tumor cell number upon knockdown was determined by counting Hoechst33342-positive cells, and tumor cell death was determined by counting condensed and/or EthD-III-positive nuclei (see below). Cell migration was determined by a scratch assay Wang et al., 2007). […] To all images to be analyzed, a Gaussian blur with a radius of 3 pixels was applied to prevent repeatedly counting of fragmented parts of apoptotic nuclei. […] The total number of all endothelial nuclei was determined through a low threshold (TH1) and application of a watershed on the resulting binary image over all Hoechst positive nuclei (minus the nuclei from tumor cells). […]
# HUVEC [2] = experiment: Tumour cell-induced endothelial cell necroptosis in vitro (co-culture, Hoechst 33342/EtDIII staining); type: cell-based, human; settings: Nec-1 30 μM, co-culture overnight
# Method: Endothelial cells were grown to reach 80-90% confluency before addition of Ethidium homodimer […]) alone or together with substances or with tumour cells together with substances or inhibitors as indicated in the figures. After 6-18 h, cells were stained with Hoechst33342 and images were acquired. In order to identify the mode of cell death, all images were analyzed with FIJI. The total number of nuclei was determined through a low threshold over all Hoechst positive nuclei. On the same channel a second, separate threshold was used to determine the number of condensed nuclei. A third threshold on the second channel was used in order to determine the number of nuclei that were stained positive for […]. Knockdown in cells was achieved by double-transfection with siRNA using Lipofectamie […] […] Knockdown efficiencies were determined by Western Blotting using antibodies against RIPK3 (Abcam), Caspase-8 (ProSci) and a-tubulin (Sigma) upon lysis with Laemmli buffer or by quantitative PCR (Roche). […] Knockdown efficiencies were determined using quantitative PCR (Roche). Tumor cell number upon knockdown was determined by counting Hoechst33342-positive cells, and tumor cell death was determined by counting condensed and/or EthD-III-positive nuclei (see below). Cell migration was determined by a scratch assay Wang et al., 2007). […]
# [3] = tested on: endothelial cells of the mouse lung; experiment: Tumour cell-induced endothelial cell death in vivo (EthD-III-positive endothelial cells in lung, 6 h); settings: B16 tumour cells i.v., Nec-1 1.65 μg/g i.v. per dose
# Method: (§1) In vivo: Tumour cells and substances or inhibitors were injected i.v. as depicted in the scheme in FIG. 5B into wildtype animals or animals of the respective genotype. To identify EtDIII-positive cells in vivo, animals were injected with EtDIII i.v. 10 min before sacrifice. Organs were isolated and processed for immunohistochemical analysis. For determining the number of metastasis, animals were sacrificed, lungs were isolated and macroscopically analyzed. All reagents used for these studies (incl. DR6-Fc) are commercially available (e.g. Lonza, CellSignaling, Sigma, R&D, etc.). […]
# (§2) TUNEL staining kit was from Roche. Sections were analyzed in XYZ views on a Leica SPS confocal microscope. The number of EthD-III-positive endothelial cells was determined by manual counting of EthD-III/ERG- or EthD-III/CD31-positive cells on a minimum of four random tissue sections per organ. For quantification of extravasating tumor cells, cryosections were analyzed by two criteria: tumor cells directly surrounded by CD31 staining (i.e. blood vessel) and with a noninvasive phenotype (i.e. round cell shape) were scored as intravascular, while cells outside blood vessels with an invasive phenotype (i.e. irregular cell shape with protrusions) were scored as extravascular. […]
# B16 or LLC1 tumour cells = experiment: Metastasis model: lung metastases after i.v. tumour cell injection (12 d); type: in vivo, mouse; settings: Nec-1 1.65 μg/g i.v. per dose, lungs at 12 d
# Method: as §1, §2
molecule,measurement,setting,value
"O=C1NC(=S)NC1Cc1c[nH]c2ccccc12 (stereo not drawn) [Nec-1 inactive, 5-((1H-indol-3-yl)methyl)-2-thioxoimidazolidin-4-one]",inhibition of necroptosis in cellular systems or in vivo,necroptosis,can efficiently inhibit necroptosis
same,effectiveness in vitro relative to Nec-1 (times less effective),RIPK1,approximately 100 times
OO [H2O2],type of cell death induced in HUVEC,HUVEC [1],necrotic phenotype
"CN1C(=O)C(Cc2c[nH]c3ccccc23)NC1=S (stereo not drawn) [Nec-1, 5-(1H-indo1-3-ylmethyl)-3-methyl-2-thioxo-4-imidazolidinone]","TNF-induced necrotic (necroptotic) phenotype of L929 cells, effect of addition of inhibitor",L929 cells,could be blocked
same,tumour cell-induced necroptosis of endothelial cells in vitro (number of necroptotic HUVEC),HUVEC [2],reduced
same,tumour cell-induced endothelial necroptosis in vivo (necroptotic ECs),[3],reduced
same,metastasis formation in vivo,B16 or LLC1 tumour cells,reduced
CN[C@@H]1C[C@H]2O[C@@](C)([C@@H]1OC)n1c3ccccc3c3c4c(c5c6ccccc6n2c5c31)C(=O)NC4 [Staurosporine],type of cell death induced in HUVEC,HUVEC [1],induced apoptosis
B1,type of cell death induced in HUVEC,HUVEC [1],induced apoptosis
